Measured values taken from publication PMC3399817 (PLoS ONE, 2012).

Experiments:
Experiment in all cases: KINOMEscan
Type in all cases: binding
[1] = biological target: T1, JNK1 (Homo sapiens, UniProt P45983); details: JNK1, 1 uM
T1 construct: purchased Ambit KINOMEscan (DiscoverX)
Description: (§1) First, we used Ambit's KINOMEscan™ technology to identify those kinases that are inhibited for substrate binding by the compounds, all assayed at 1 μM. Second, we used Invitrogen's SelectScreen® Biochemical Kinase Profiling Service to determine the in vitro IC50s for the compounds against specific kinases.

[2] = biological target: T2, CDK8 (Homo sapiens, UniProt P49336); details: CDK8, 1 uM
T2 construct: purchased Ambit KINOMEscan (DiscoverX)
Description: as §1

[3] = biological target: T3, LTK (Homo sapiens, UniProt P29376); details: 1 uM
T3 construct: purchased Ambit KINOMEscan (DiscoverX)
T3 sequence (P29376 17-864): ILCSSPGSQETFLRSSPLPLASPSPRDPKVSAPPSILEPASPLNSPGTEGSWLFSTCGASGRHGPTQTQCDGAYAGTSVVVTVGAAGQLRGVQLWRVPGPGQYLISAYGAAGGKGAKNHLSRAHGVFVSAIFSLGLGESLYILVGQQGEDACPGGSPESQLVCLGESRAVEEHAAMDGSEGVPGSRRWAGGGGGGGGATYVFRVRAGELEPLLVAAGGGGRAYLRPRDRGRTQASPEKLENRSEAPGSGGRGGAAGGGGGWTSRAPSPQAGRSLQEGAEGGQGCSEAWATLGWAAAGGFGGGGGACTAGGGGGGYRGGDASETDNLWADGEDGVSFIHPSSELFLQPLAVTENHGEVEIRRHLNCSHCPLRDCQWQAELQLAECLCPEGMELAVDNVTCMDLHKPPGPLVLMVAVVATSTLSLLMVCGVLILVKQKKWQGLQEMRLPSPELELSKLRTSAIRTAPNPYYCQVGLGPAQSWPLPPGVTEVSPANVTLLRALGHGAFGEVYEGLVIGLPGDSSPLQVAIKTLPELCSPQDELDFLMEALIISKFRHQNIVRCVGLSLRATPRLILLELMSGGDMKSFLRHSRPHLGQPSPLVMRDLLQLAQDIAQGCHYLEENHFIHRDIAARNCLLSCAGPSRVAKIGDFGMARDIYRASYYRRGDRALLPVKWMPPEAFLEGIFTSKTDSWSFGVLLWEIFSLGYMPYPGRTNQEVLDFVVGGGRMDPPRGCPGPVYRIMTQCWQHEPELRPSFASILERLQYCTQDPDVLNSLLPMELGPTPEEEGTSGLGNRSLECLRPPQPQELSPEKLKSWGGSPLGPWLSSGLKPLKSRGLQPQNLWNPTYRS
Description: as §1

[4] = biological target: T4, KIT(V559D) (Homo sapiens, UniProt P10721, V559D); details: 1 uM
T4 construct: purchased Ambit KINOMEscan (DiscoverX)
T4 sequence (P10721 26-976 V559D): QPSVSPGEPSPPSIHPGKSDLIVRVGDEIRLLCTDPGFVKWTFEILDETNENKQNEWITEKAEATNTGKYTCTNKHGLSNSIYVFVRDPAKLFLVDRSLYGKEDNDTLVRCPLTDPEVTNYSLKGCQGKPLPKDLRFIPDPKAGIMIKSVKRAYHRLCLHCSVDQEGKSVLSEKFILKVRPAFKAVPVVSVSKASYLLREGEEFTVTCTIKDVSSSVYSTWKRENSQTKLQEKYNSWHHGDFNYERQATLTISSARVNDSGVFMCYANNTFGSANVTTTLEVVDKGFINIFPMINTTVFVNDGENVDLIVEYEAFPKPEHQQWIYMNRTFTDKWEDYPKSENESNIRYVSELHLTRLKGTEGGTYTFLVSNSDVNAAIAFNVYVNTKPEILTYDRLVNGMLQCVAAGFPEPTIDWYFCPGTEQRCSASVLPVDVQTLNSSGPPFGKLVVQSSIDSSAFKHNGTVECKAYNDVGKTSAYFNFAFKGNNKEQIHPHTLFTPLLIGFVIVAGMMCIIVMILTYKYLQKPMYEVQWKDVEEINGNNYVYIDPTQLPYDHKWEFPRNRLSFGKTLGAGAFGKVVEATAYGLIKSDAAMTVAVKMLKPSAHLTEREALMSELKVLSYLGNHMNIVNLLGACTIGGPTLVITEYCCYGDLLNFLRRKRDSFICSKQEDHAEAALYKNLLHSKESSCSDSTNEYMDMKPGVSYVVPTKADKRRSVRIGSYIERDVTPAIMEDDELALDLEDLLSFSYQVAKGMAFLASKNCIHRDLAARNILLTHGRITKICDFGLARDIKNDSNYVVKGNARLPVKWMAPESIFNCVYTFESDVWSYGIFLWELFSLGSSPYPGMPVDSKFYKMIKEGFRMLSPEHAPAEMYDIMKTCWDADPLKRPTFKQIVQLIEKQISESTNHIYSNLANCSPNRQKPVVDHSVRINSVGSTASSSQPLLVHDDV
Description: as §1

[5] = biological target: T5, ULK1 (Homo sapiens, UniProt O75385); details: ULK1, 1 uM
T5 construct: purchased Ambit KINOMEscan (DiscoverX)
Description: as §1

[6] = biological target: T6, EPHA4 (Homo sapiens, UniProt P54764); details: EPHA4, 1 uM
T6 construct: purchased Ambit KINOMEscan (DiscoverX)
Description: as §1

[7] = biological target: T7, FER (Homo sapiens, UniProt P16591); details: 1 uM
T7 construct: purchased Ambit KINOMEscan (DiscoverX)
T7 sequence (P16591 whole entry): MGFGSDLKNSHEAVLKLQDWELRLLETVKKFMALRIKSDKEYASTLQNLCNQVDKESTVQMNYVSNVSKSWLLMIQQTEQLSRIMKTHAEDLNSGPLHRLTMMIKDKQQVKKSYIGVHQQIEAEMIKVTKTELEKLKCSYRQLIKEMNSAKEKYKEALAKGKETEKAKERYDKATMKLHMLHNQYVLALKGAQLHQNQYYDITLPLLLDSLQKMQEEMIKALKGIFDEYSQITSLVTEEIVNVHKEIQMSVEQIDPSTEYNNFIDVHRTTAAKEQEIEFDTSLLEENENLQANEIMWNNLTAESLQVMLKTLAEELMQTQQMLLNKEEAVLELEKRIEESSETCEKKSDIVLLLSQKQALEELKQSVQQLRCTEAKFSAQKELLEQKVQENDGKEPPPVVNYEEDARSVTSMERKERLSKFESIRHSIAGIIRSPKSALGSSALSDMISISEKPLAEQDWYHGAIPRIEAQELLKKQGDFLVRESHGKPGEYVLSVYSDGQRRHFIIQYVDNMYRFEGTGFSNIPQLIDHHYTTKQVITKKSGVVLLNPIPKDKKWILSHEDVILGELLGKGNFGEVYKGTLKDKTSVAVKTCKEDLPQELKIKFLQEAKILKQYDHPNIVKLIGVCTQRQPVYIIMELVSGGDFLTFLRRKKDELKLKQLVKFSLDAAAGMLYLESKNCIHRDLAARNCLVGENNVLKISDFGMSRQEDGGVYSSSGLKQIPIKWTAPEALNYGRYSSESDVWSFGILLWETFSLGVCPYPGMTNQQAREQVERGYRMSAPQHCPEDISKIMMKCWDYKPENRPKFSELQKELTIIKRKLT
Description: as §1

[8] = biological target: T8, MAK (Homo sapiens, UniProt P20794); details: 1 uM
T8 construct: purchased Ambit KINOMEscan (DiscoverX)
Description: as §1

[9] = biological target: T9, EGFR(G719S) (Homo sapiens, UniProt P00533, G719S); details: 1 uM
T9 construct: purchased Ambit KINOMEscan (DiscoverX)
Description: as §1

[10] = biological target: T10, CSNK1D (Homo sapiens, UniProt P48730); details: 1 uM
T10 construct: purchased Ambit KINOMEscan (DiscoverX)
Description: as §1

[11] = biological target: T11, NEK1 (Homo sapiens, UniProt Q96PY6); details: for % binding compared to no inhibitor control: NEK1, 1 uM
T11 construct: purchased Ambit KINOMEscan (DiscoverX)
T11 sequence (Q96PY6 1-1258): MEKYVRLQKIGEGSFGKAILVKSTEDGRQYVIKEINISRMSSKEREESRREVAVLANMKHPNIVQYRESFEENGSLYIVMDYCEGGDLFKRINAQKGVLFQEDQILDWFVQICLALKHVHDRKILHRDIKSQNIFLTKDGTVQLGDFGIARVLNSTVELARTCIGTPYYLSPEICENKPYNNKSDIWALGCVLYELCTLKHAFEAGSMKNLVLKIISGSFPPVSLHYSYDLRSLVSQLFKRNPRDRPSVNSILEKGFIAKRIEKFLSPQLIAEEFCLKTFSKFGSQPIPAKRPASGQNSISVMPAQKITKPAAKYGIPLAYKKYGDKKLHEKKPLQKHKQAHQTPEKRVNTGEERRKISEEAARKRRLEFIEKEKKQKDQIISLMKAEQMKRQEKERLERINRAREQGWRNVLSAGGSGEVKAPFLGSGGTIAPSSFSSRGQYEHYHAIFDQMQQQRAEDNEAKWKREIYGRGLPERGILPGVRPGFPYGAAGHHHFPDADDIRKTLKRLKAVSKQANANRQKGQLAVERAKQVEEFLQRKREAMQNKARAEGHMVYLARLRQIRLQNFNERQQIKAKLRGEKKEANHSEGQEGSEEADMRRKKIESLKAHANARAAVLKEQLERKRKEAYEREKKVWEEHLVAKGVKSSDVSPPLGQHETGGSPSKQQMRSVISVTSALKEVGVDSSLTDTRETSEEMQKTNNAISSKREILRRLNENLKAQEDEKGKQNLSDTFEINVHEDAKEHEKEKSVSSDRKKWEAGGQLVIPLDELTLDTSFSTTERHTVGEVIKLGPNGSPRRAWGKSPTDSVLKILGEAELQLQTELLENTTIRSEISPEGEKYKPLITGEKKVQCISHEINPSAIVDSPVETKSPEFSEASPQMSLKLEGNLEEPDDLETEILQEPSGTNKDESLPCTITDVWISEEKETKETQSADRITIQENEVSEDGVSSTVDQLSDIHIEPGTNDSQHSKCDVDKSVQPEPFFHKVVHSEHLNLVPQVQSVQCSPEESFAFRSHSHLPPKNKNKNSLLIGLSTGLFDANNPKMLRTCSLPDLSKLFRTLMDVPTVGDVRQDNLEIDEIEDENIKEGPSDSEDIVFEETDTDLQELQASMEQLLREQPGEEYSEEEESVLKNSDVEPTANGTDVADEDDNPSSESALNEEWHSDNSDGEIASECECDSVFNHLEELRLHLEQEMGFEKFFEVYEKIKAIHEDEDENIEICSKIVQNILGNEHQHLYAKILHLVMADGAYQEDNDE
Description: as §1

[12] = biological target: T12, CDK9 (Homo sapiens, UniProt P50750); details: for % binding compared to no inhibitor control: CDK9, 1 uM
T12 construct: purchased Ambit KINOMEscan (DiscoverX)
T12 sequence (P50750 whole entry): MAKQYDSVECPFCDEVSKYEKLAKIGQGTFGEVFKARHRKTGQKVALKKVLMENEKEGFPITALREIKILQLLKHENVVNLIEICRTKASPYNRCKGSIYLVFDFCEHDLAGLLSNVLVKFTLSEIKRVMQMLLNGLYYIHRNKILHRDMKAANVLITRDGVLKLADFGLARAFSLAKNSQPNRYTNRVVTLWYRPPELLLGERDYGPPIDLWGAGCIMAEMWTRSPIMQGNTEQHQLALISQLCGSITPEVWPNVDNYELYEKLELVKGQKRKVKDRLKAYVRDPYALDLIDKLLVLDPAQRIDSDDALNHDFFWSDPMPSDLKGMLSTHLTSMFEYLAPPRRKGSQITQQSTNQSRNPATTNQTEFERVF
Description: as §1

[13] = biological target: T13, BRK (Homo sapiens, UniProt Q13882); details: 1 uM
T13 construct: purchased Ambit KINOMEscan (DiscoverX)
T13 sequence (Q13882 whole entry): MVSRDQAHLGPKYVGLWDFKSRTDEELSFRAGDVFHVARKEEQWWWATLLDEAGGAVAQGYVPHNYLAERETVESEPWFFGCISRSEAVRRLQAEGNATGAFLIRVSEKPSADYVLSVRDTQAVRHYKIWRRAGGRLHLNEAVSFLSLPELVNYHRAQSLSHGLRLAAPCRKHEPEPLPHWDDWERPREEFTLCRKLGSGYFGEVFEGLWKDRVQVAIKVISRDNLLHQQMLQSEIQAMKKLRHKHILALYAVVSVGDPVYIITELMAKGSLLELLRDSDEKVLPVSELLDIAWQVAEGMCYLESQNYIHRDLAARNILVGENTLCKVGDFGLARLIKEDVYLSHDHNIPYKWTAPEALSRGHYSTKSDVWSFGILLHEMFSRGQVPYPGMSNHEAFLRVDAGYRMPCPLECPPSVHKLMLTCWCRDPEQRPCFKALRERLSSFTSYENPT
Description: as §1

[14] = biological target: T14, MYLK (Homo sapiens, UniProt Q15746); details: 1 uM
T14 construct: purchased Ambit KINOMEscan (DiscoverX)
Description: as §1

[15] = biological target: T15, HUNK (Homo sapiens, UniProt P57058); details: 1 uM
T15 construct: purchased Ambit KINOMEscan (DiscoverX)
Description: as §1

[16] = biological target: T16, MAP3K4 (Homo sapiens, UniProt Q9Y6R4); details: MAP3K4, 1 uM
T16 construct: purchased Ambit KINOMEscan (DiscoverX)
Description: as §1

[17] = biological target: T17, PFTAIRE2 (Homo sapiens, UniProt Q96Q40); details: PFTAIRE2, 1 uM
T17 construct: purchased Ambit KINOMEscan (DiscoverX)
Description: as §1

[18] = biological target: T18, AURKA (Homo sapiens, UniProt O14965); details: 1 uM
T18 construct: purchased Ambit KINOMEscan (DiscoverX)
T18 sequence (O14965 whole entry): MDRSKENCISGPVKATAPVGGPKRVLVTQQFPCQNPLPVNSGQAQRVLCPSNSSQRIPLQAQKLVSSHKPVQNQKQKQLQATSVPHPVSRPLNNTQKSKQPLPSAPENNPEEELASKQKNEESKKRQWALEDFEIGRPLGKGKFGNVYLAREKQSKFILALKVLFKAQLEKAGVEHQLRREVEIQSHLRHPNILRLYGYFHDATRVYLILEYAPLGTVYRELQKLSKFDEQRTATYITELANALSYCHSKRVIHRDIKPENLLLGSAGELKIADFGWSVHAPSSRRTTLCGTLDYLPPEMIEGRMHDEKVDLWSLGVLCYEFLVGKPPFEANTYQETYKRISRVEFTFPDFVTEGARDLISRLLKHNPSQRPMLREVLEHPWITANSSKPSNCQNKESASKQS
Description: as §1

[19] = biological target: T19, SRMS (Homo sapiens, UniProt Q9H3Y6); details: 1 uM
T19 construct: purchased Ambit KINOMEscan (DiscoverX)
Description: as §1

[20] = biological target: T20, MYO3B (Homo sapiens, UniProt Q8WXR4); details: 1 uM
T20 construct: purchased Ambit KINOMEscan (DiscoverX)
Description: as §1

[21] = biological target: T21, NIM1 (Homo sapiens, UniProt Q8IY84); details: NIM1, 1 uM
T21 construct: purchased Ambit KINOMEscan (DiscoverX)
Description: as §1

[22] = biological target: T22, SgK110 (Homo sapiens, UniProt P0C264); details: SgK110, 1 uM
T22 construct: purchased Ambit KINOMEscan (DiscoverX)
Description: as §1

[23] = biological target: T23, AURKC (Homo sapiens, UniProt Q9UQB9); details: 1 uM
T23 construct: purchased Ambit KINOMEscan (DiscoverX)
Description: as §1

[24] = biological target: T24, MST1 (Homo sapiens, UniProt Q13043); details: MST1, 1 uM
T24 construct: purchased Ambit KINOMEscan (DiscoverX)
T24 sequence (Q13043 whole entry): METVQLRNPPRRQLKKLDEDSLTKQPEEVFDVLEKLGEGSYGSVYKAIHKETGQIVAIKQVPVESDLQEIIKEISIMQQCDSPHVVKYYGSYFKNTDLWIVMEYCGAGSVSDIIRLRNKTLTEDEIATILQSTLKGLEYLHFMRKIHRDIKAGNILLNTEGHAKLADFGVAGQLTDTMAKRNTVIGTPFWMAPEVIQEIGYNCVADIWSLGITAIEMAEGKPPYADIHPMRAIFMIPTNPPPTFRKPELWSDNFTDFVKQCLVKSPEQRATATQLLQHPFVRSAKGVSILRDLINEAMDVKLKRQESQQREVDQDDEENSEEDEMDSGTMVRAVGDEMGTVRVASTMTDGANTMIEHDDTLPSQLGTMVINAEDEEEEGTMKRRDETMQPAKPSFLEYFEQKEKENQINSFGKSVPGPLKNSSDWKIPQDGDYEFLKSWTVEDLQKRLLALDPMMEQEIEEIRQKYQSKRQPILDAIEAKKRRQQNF
Description: as §1

[25] = biological target: T25, SYK (Homo sapiens, UniProt P43405); details: for % binding compared to no inhibitor control: 1 uM
T25 construct: purchased Ambit KINOMEscan (DiscoverX)
Description: as §1

T1 sequence (P45983 whole entry): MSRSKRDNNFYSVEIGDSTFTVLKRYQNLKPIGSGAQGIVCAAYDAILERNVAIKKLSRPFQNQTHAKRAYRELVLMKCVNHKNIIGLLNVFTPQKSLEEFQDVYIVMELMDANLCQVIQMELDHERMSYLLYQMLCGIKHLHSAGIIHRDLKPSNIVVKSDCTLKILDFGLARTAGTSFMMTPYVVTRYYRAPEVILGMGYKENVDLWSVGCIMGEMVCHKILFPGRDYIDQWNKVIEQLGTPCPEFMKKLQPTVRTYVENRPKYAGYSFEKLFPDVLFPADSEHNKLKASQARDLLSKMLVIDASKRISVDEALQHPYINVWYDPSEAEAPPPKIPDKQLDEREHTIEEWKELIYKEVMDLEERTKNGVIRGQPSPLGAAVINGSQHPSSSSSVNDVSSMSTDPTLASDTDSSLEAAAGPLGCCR

| Compound | % binding compared to no inhibitor control [1] [%] | % binding compared to no inhibitor control [2] [%] | % binding compared to no inhibitor control [3] [%] | % binding compared to no inhibitor control [4] [%] | % binding compared to no inhibitor control [5] [%] | % binding compared to no inhibitor control [6] [%] | % binding compared to no inhibitor control [7] [%] | % binding compared to no inhibitor control [8] [%] | % binding compared to no inhibitor control [9] [%] | % binding compared to no inhibitor control [10] [%] | % binding compared to no inhibitor control [11] [%] | % binding compared to no inhibitor control [12] [%] | % binding compared to no inhibitor control [13] [%] | % binding compared to no inhibitor control [14] [%] | % binding compared to no inhibitor control [15] [%] | % binding compared to no inhibitor control [16] [%] | % binding compared to no inhibitor control [17] [%] | % binding compared to no inhibitor control [18] [%] | % binding compared to no inhibitor control [19] [%] | % binding compared to no inhibitor control [20] [%] | other results |
| --- | --- | --- | --- | --- | --- | --- | --- | --- | --- | --- | --- | --- | --- | --- | --- | --- | --- | --- | --- | --- | --- |
| COc1ccc(-c2cc3nccn3c(Nc3ncccc3C(N)=O)n2)cc1OC.Cl.Cl [BAY61-3606, 2-[7-(3,4-dimethoxyphenyl)-imidazo [1,2-c]pyrimidin-5-ylamino] nicotinamide dihydrochloride, reference compound] | 18 | 62 | 46 | 3 | 97 | 91 | 69 | 68 | 71 | 74 | 27 | 56 | 87 | 55 | 67 | 100 | 85 | 91 | 65 | 72 | % inhibition ATP binding ([11]; NEK1, KINOMEscan, 1 μM): 73%; % inhibition ATP binding ([12]; CDK9, KINOMEscan, 1 μM): 44%; % binding compared to no inhibitor control [21]: 88%; % binding compared to no inhibitor control [22]: 100%; % binding compared to no inhibitor control [23]: 92%; % binding compared to no inhibitor control [24]: 85%; % binding compared to no inhibitor control [25]: 6.1%; % inhibition ATP binding ([25]; KINOMEscan, 1 μM): 93.9% |
| COc1ccccc1Nc1nc(-c2ccc(OC)c(OC)c2)cc2nccn12 [BAY derivative 6] | 95 | 100 | 30 | 54 | 100 | 92 | 100 | 100 | 100 | 100 | 91 | 100 | 59 | 100 | 75 | 99 | 100 | 87 | 97 | 100 | % binding compared to no inhibitor control [21]: 100%; % binding compared to no inhibitor control [22]: 100%; % binding compared to no inhibitor control [23]: 100%; % binding compared to no inhibitor control [24]: 87%; % binding compared to no inhibitor control [25]: 48% |
